Source: the supplement of paper PMC10307832

Experiments:
Assay in all cases: relative viability (nuclei count vs DMSO), 5 days (fraction); higher = more cells survive
NCI-H2087 = system: NCI-H2087
Summary of the method: (§1)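 Lung cancer cell lines in 1536-well plates got either a single drug or a fixed anchor-drug dose together with five library-drug doses (not always all listed) in √10 steps, by pin tool, on the day after seeding. Nuclei were counted after 5 days, and relative viability is the treated-to-vehicle ratio of nuclei counts. Values are medians of duplicate plates.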

BEN = system: BEN
Summary of the method: as §1

HCC-44 = system: HCC-44
Summary of the method: as §1

NCI-H596 = system: NCI-H596
Summary of the method: as §1

LCLC-103H = system: LCLC-103H
Summary of the method: as §1

NCI-H1993 = system: NCI-H1993
Summary of the method: as §1

HARA = system: HARA
Summary of the method: as §1

EMC-BAC-2 = system: EMC-BAC-2
Summary of the method: as §1

NCI-H2126 = system: NCI-H2126
Summary of the method: as §1

LOU-NH91 = system: LOU-NH91
Summary of the method: as §1

NCI-H647 = system: NCI-H647
Summary of the method: as §1

NCI-H23 = system: NCI-H23
Summary of the method: as §1

201T = system: 201T
Summary of the method: as §1

NCI-H1395 = system: NCI-H1395
Summary of the method: as §1

NCI-H3122 = system: NCI-H3122
Summary of the method: as §1

NCI-H441 = system: NCI-H441
Summary of the method: as §1

NCI-H727 = system: NCI-H727
Summary of the method: as §1

NCI-H650 = system: NCI-H650
Summary of the method: as §1

NCI-H522 = system: NCI-H522
Summary of the method: as §1

NCI-H2347 = system: NCI-H2347
Summary of the method: as §1

NCI-H838 = system: NCI-H838
Summary of the method: as §1

NCI-H2023 = system: NCI-H2023
Summary of the method: as §1

O=c1cc(-c2cccc3c2Sc2ccccc2S3)oc(N2CCOCC2)c1 + N=C(N)NC(=N)NCCc1ccccc1 [Phenformin] (partner 250 µM)
relative viability (NCI-H2087; first compound 0.08 µM): 0.47
relative viability (NCI-H2087; first compound 0.253 µM): 0.623
relative viability (NCI-H2087; first compound 0.8 µM): 0.527
relative viability (NCI-H2087; first compound 2.53 µM): 0.398
relative viability (NCI-H2087; first compound 8 µM): 0.462
relative viability (BEN; first compound 0.08 µM): 0.258
relative viability (BEN; first compound 0.253 µM): 0.306
relative viability (BEN; first compound 0.8 µM): 0.248
relative viability (BEN; first compound 2.53 µM): 0.217
relative viability (BEN; first compound 8 µM): 0.3
relative viability (HCC-44; first compound 0.08 µM): 0.173
relative viability (HCC-44; first compound 0.253 µM): 0.172
relative viability (HCC-44; first compound 0.8 µM): 0.144
relative viability (HCC-44; first compound 2.53 µM): 0.182
relative viability (HCC-44; first compound 8 µM): 0.217
relative viability (NCI-H596; first compound 0.08 µM): 0.808
relative viability (NCI-H596; first compound 0.253 µM): 0.812
relative viability (NCI-H596; first compound 0.8 µM): 0.921
relative viability (NCI-H596; first compound 2.53 µM): 0.756
relative viability (NCI-H596; first compound 8 µM): 0.887
relative viability (LCLC-103H; first compound 0.08 µM): 0.31
relative viability (LCLC-103H; first compound 0.253 µM): 0.374
relative viability (LCLC-103H; first compound 0.8 µM): 0.361
relative viability (LCLC-103H; first compound 2.53 µM): 0.336
relative viability (LCLC-103H; first compound 8 µM): 0.296
relative viability (NCI-H1993; first compound 0.08 µM): 0.494
relative viability (NCI-H1993; first compound 0.253 µM): 0.52
relative viability (NCI-H1993; first compound 0.8 µM): 0.589
relative viability (NCI-H1993; first compound 2.53 µM): 0.565
relative viability (NCI-H1993; first compound 8 µM): 0.56
relative viability (HARA; first compound 0.08 µM): 0.452
relative viability (HARA; first compound 0.253 µM): 0.592
relative viability (HARA; first compound 0.8 µM): 0.435
relative viability (HARA; first compound 2.53 µM): 0.348
relative viability (HARA; first compound 8 µM): 0.702
relative viability (EMC-BAC-2; first compound 0.08 µM): 0.502
relative viability (EMC-BAC-2; first compound 0.253 µM): 0.54
relative viability (EMC-BAC-2; first compound 0.8 µM): 0.563
relative viability (EMC-BAC-2; first compound 2.53 µM): 0.489
relative viability (EMC-BAC-2; first compound 8 µM): 0.519
relative viability (NCI-H2126; first compound 0.08 µM): 0.53
relative viability (NCI-H2126; first compound 0.253 µM): 0.584
relative viability (NCI-H2126; first compound 0.8 µM): 0.482
relative viability (NCI-H2126; first compound 2.53 µM): 0.517
relative viability (NCI-H2126; first compound 8 µM): 0.521
relative viability (LOU-NH91; first compound 0.08 µM): 0.611
relative viability (LOU-NH91; first compound 0.253 µM): 0.675
relative viability (LOU-NH91; first compound 0.8 µM): 0.658
relative viability (LOU-NH91; first compound 2.53 µM): 0.6
relative viability (LOU-NH91; first compound 8 µM): 0.741
relative viability (NCI-H647; first compound 0.08 µM): 0.572
relative viability (NCI-H647; first compound 0.253 µM): 0.838
relative viability (NCI-H647; first compound 0.8 µM): 0.547
relative viability (NCI-H647; first compound 2.53 µM): 0.476
relative viability (NCI-H647; first compound 8 µM): 0.487
relative viability (NCI-H23; first compound 0.08 µM): 0.811
relative viability (NCI-H23; first compound 0.253 µM): 0.96
relative viability (NCI-H23; first compound 0.8 µM): 0.901
relative viability (NCI-H23; first compound 2.53 µM): 0.714
relative viability (NCI-H23; first compound 8 µM): 0.959
relative viability (201T; first compound 0.08 µM): 0.445
relative viability (201T; first compound 0.253 µM): 0.545
relative viability (201T; first compound 0.8 µM): 0.423
relative viability (201T; first compound 2.53 µM): 0.427
relative viability (201T; first compound 8 µM): 0.498
relative viability (NCI-H1395; first compound 0.08 µM): 0.462
relative viability (NCI-H1395; first compound 0.253 µM): 0.393
relative viability (NCI-H1395; first compound 0.8 µM): 0.472
relative viability (NCI-H1395; first compound 2.53 µM): 0.389
relative viability (NCI-H1395; first compound 8 µM): 0.433
relative viability (NCI-H3122; first compound 0.08 µM): 0.38
relative viability (NCI-H3122; first compound 0.253 µM): 0.418
relative viability (NCI-H3122; first compound 0.8 µM): 0.376
relative viability (NCI-H3122; first compound 2.53 µM): 0.36
relative viability (NCI-H3122; first compound 8 µM): 0.398
relative viability (NCI-H441; first compound 0.08 µM): 0.854
relative viability (NCI-H441; first compound 0.253 µM): 1.2
relative viability (NCI-H441; first compound 0.8 µM): 0.895
relative viability (NCI-H441; first compound 2.53 µM): 0.903
relative viability (NCI-H441; first compound 8 µM): 0.904
relative viability (NCI-H727; first compound 0.08 µM): 0.503
relative viability (NCI-H727; first compound 0.253 µM): 0.591
relative viability (NCI-H727; first compound 0.8 µM): 0.411
relative viability (NCI-H727; first compound 2.53 µM): 0.571
relative viability (NCI-H727; first compound 8 µM): 0.525
relative viability (NCI-H650; first compound 0.08 µM): 0.386
relative viability (NCI-H650; first compound 0.253 µM): 0.437
relative viability (NCI-H650; first compound 0.8 µM): 0.461
relative viability (NCI-H650; first compound 8 µM): 0.452
relative viability (NCI-H522; first compound 0.08 µM): 0.56
relative viability (NCI-H522; first compound 0.253 µM): 0.689
relative viability (NCI-H522; first compound 0.8 µM): 0.622
relative viability (NCI-H522; first compound 2.53 µM): 0.556
relative viability (NCI-H522; first compound 8 µM): 0.67
relative viability (NCI-H2347; first compound 0.08 µM): 0.541
relative viability (NCI-H2347; first compound 0.253 µM): 0.501
relative viability (NCI-H2347; first compound 0.8 µM): 0.416
relative viability (NCI-H2347; first compound 2.53 µM): 0.279
relative viability (NCI-H2347; first compound 8 µM): 0.362
relative viability (NCI-H838; first compound 0.08 µM): 0.517
relative viability (NCI-H838; first compound 0.253 µM): 0.726
relative viability (NCI-H838; first compound 0.8 µM): 0.488
relative viability (NCI-H838; first compound 2.53 µM): 0.531
relative viability (NCI-H838; first compound 8 µM): 0.503
relative viability (NCI-H2023; first compound 0.08 µM): 0.401
relative viability (NCI-H2023; first compound 0.253 µM): 0.484
relative viability (NCI-H2023; first compound 0.8 µM): 0.476
relative viability (NCI-H2023; first compound 2.53 µM): 0.362
relative viability (NCI-H2023; first compound 8 µM): 0.44
